System: 299254-011-R-J1-PDC complex spheroids viability
Experiment: Anticancer human tumor 299254-011-R-J1-PDC patient-derived melanoma cell line growth inhibition [GQUAD]
Conditions: for IC50: curve of first compound; for viability, T/C: stronger effect = lower value
Procedure, shortened: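 Multi-cell-type spheroids of tumor cells with HUVEC and mesenchymal stem cells, treated with drug combinations. Concentrations descend in half-log steps from near clinical Cmax, or from 10 microM where Cmax is unknown; viability read-out.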

[1] = second compound 0.0316 µM, first compound 0.0316 µM
[2] = second compound 0.0316 µM, first compound 0.1 µM
[3] = second compound 0.0316 µM, first compound 0.316 µM
[4] = second compound 0.0316 µM, first compound 1 µM
[5] = second compound 0.0316 µM, first compound 3.16 µM
[6] = second compound 0.0316 µM, first compound 10 µM
[7] = second compound 0.1 µM, first compound 0.0316 µM
[8] = second compound 0.1 µM, first compound 0.1 µM
[9] = second compound 0.1 µM, first compound 0.316 µM
[10] = second compound 0.1 µM, first compound 1 µM
[11] = second compound 0.1 µM, first compound 3.16 µM
[12] = second compound 0.1 µM, first compound 10 µM
[13] = second compound 0.316 µM, first compound 0.0316 µM
[14] = second compound 0.316 µM, first compound 0.1 µM
[15] = second compound 0.316 µM, first compound 0.316 µM
[16] = second compound 0.316 µM, first compound 1 µM
[17] = second compound 0.316 µM, first compound 3.16 µM
[18] = second compound 0.316 µM, first compound 10 µM
[19] = second compound 1 µM, first compound 0.0316 µM
[20] = second compound 1 µM, first compound 0.1 µM
[21] = second compound 1 µM, first compound 0.316 µM
[22] = second compound 1 µM, first compound 1 µM
[23] = second compound 1 µM, first compound 3.16 µM
[24] = second compound 1 µM, first compound 10 µM
[25] = second compound 3.16 µM, first compound 0.0316 µM
[26] = second compound 3.16 µM, first compound 0.1 µM
[27] = second compound 3.16 µM, first compound 0.316 µM
[28] = second compound 3.16 µM, first compound 1 µM
[29] = second compound 3.16 µM, first compound 3.16 µM
[30] = second compound 3.16 µM, first compound 10 µM
[31] = second compound 10 µM, first compound 0.0316 µM
[32] = second compound 10 µM, first compound 0.1 µM
[33] = second compound 10 µM, first compound 0.316 µM
[34] = second compound 10 µM, first compound 1 µM
[35] = second compound 10 µM, first compound 3.16 µM
[36] = second compound 10 µM, first compound 10 µM
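Further: spheroids exposed to the agents for seven days before readout.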
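Wherever viability, T/C is given: percent viability relative to DMSO vehicle control wells = 100%.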

CC(=O)O[C@H]1C(=O)[C@@]2(C)[C@H]([C@H](OC(=O)c3ccccc3)[C@]3(O)C[C@H](OC(=O)[C@H](O)[C@@H](NC(=O)c4ccccc4)c4ccccc4)C(C)=C1C3(C)C)[C@]1(OC(C)=O)CO[C@@H]1C[C@@H]2O + Cc1[nH]c2ccc(F)cc2c1-c1nc2c3cccnc3c3ncccc3c2[nH]1
IC50 (second compound 0.0316 µM): 0.448 µM
IC50 (second compound 0.1 µM): 0.274 µM
IC50 (second compound 0.316 µM): 0.445 µM
IC50 (second compound 1 µM): 0.506 µM
IC50 (second compound 3.16 µM): 0.531 µM
IC50 (second compound 10 µM): 0.405 µM
viability, T/C [1]: 90.7%
viability, T/C [2]: 82%
viability, T/C [3]: 58.2%
viability, T/C [4]: 31.2%
viability, T/C [5]: 18%
viability, T/C [6]: 15.5%
viability, T/C [7]: 86.8%
viability, T/C [8]: 94.6%
viability, T/C [9]: 44.2%
viability, T/C [10]: 35.9%
viability, T/C [11]: 20.7%
viability, T/C [12]: 13.9%
viability, T/C [13]: 104%
viability, T/C [14]: 86.1%
viability, T/C [15]: 57.2%
viability, T/C [16]: 33.4%
viability, T/C [17]: 19.2%
viability, T/C [18]: 17.3%
viability, T/C [19]: 89.6%
viability, T/C [20]: 92.6%
viability, T/C [21]: 50.1%
viability, T/C [22]: 43.1%
viability, T/C [23]: 21.2%
viability, T/C [24]: 17.4%
viability, T/C [25]: 83.3%
viability, T/C [26]: 84.2%
viability, T/C [27]: 58.2%
viability, T/C [28]: 38.7%
viability, T/C [29]: 22.8%
viability, T/C [30]: 21.6%
viability, T/C [31]: 87.6%
viability, T/C [32]: 84.5%
viability, T/C [33]: 48.3%
viability, T/C [34]: 40.3%
viability, T/C [35]: 23.7%
viability, T/C [36]: 22.8%

COc1ncnc(C2CC2)c1-c1ncc2cnn(Cc3ccc(-c4nc(C(F)(F)F)cn4C(C)C)cc3)c2n1 + CN(C)c1ccc(Nc2c3ccc(NC(=O)CCN4CCCC4)cc3nc3cc(NC(=O)CCN4CCCC4)ccc23)cc1
IC50 (second compound 0.0316 µM): > 10 µM
IC50 (second compound 0.1 µM): > 10 µM
IC50 (second compound 0.316 µM): > 10 µM
IC50 (second compound 1 µM): > 10 µM
IC50 (second compound 3.16 µM): > 10 µM
IC50 (second compound 10 µM): > 10 µM
viability, T/C [1]: 92.6%
viability, T/C [2]: 78.1%
viability, T/C [3]: 106%
viability, T/C [4]: 98.3%
viability, T/C [5]: 101%
viability, T/C [6]: 88%
viability, T/C [7]: 102%
viability, T/C [8]: 97.3%
viability, T/C [9]: 114%
viability, T/C [10]: 96.3%
viability, T/C [11]: 97.4%
viability, T/C [12]: 121%
viability, T/C [13]: 101%
viability, T/C [14]: 103%
viability, T/C [15]: 92.2%
viability, T/C [16]: 99.4%
viability, T/C [17]: 101%
viability, T/C [18]: 117%
viability, T/C [19]: 117%
viability, T/C [20]: 77%
viability, T/C [21]: 98.6%
viability, T/C [22]: 98.6%
viability, T/C [23]: 99.8%
viability, T/C [24]: 107%
viability, T/C [25]: 86.9%
viability, T/C [26]: 99.8%
viability, T/C [27]: 86.5%
viability, T/C [28]: 105%
viability, T/C [29]: 113%
viability, T/C [30]: 104%
viability, T/C [31]: 93.3%
viability, T/C [32]: 110%
viability, T/C [33]: 96.2%
viability, T/C [34]: 79.4%
viability, T/C [35]: 89.5%
viability, T/C [36]: 93.7%

O=c1[nH]cc(F)c(=O)[nH]1 + CN(C)c1ccc(Nc2c3ccc(NC(=O)CCN4CCCC4)cc3nc3cc(NC(=O)CCN4CCCC4)ccc23)cc1
IC50 (second compound 0.0316 µM): > 10 µM
IC50 (second compound 0.1 µM): > 10 µM
IC50 (second compound 0.316 µM): > 10 µM
IC50 (second compound 1 µM): > 10 µM
IC50 (second compound 3.16 µM): > 10 µM
IC50 (second compound 10 µM): > 10 µM
viability, T/C [1]: 93.3%
viability, T/C [2]: 106%
viability, T/C [3]: 105%
viability, T/C [4]: 104%
viability, T/C [5]: 110%
viability, T/C [6]: 82.9%
viability, T/C [7]: 79.3%
viability, T/C [8]: 91.4%
viability, T/C [9]: 90.7%
viability, T/C [10]: 92.2%
viability, T/C [11]: 86.7%
viability, T/C [12]: 91.5%
viability, T/C [13]: 89.2%
viability, T/C [14]: 106%
viability, T/C [15]: 80.2%
viability, T/C [16]: 93.3%
viability, T/C [17]: 104%
viability, T/C [18]: 82.6%
viability, T/C [19]: 106%
viability, T/C [20]: 91.3%
viability, T/C [21]: 93.3%
viability, T/C [22]: 84.6%
viability, T/C [23]: 103%
viability, T/C [24]: 101%
viability, T/C [25]: 82.7%
viability, T/C [26]: 103%
viability, T/C [27]: 112%
viability, T/C [28]: 95.1%
viability, T/C [29]: 115%
viability, T/C [30]: 106%
viability, T/C [31]: 91.3%
viability, T/C [32]: 96.8%
viability, T/C [33]: 98.4%
viability, T/C [34]: 94.7%
viability, T/C [35]: 90.9%
viability, T/C [36]: 96.3%
